Measured values from PubChem BioAssay (NCI).
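The concentration for 50% growth inhibition is given as GI50. TGI denotes the concentration required for complete inhibition of growth.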

Legend:
Test in all cases: NCI-60 cell line screen, 384-well format
U251 glioblastoma = tested on: U251 glioblastoma
HS 578T breast = tested on: HS 578T breast
SW-620 colon = tested on: SW-620 colon
786-0 renal = tested on: 786-0 renal
KM12 colon = tested on: KM12 colon
SF-539 CNS = tested on: SF-539 CNS
MALME-3M melanoma = tested on: MALME-3M melanoma
SF-268 CNS = tested on: SF-268 CNS
OVCAR-3 ovarian = tested on: OVCAR-3 ovarian
MDA-MB-231 breast = tested on: MDA-MB-231 breast
MOLT-4 leukemia = tested on: MOLT-4 leukemia
RPMI-8226 leukemia = tested on: RPMI-8226 leukemia
NCI/ADR-RES ovarian = tested on: NCI/ADR-RES ovarian
SR leukemia = tested on: SR leukemia
BT-549 breast = tested on: BT-549 breast
A498 renal = tested on: A498 renal
SNB-75 CNS = tested on: SNB-75 CNS
SF-295 CNS = tested on: SF-295 CNS
SK-MEL-5 melanoma = tested on: SK-MEL-5 melanoma
A549 NSCLC = tested on: A549 NSCLC
HOP-62 NSCLC = tested on: HOP-62 NSCLC
M14 melanoma = tested on: M14 melanoma
SK-MEL-28 melanoma = tested on: SK-MEL-28 melanoma
OVCAR-5 ovarian = tested on: OVCAR-5 ovarian
SK-OV-3 ovarian = tested on: SK-OV-3 ovarian
RXF 393 renal = tested on: RXF 393 renal
T-47D breast = tested on: T-47D breast
NCI-H23 lung = tested on: NCI-H23 lung
UACC-257 melanoma = tested on: UACC-257 melanoma
K-562 leukemia = tested on: K-562 leukemia
CCRF-CEM leukemia = tested on: CCRF-CEM leukemia
NCI-H522 lung = tested on: NCI-H522 lung
IGROV1 ovarian = tested on: IGROV1 ovarian
MDA-MB-468 breast = tested on: MDA-MB-468 breast
NCI-H322M lung = tested on: NCI-H322M lung
SN12C renal = tested on: SN12C renal
OVCAR-4 ovarian = tested on: OVCAR-4 ovarian
DU-145 prostate = tested on: DU-145 prostate
HT29 colon = tested on: HT29 colon
LOX IMVI melanoma = tested on: LOX IMVI melanoma
OVCAR-8 ovarian = tested on: OVCAR-8 ovarian
MCF7 breast = tested on: MCF7 breast
HCT-15 colon = tested on: HCT-15 colon
CAKI-1 renal = tested on: CAKI-1 renal
COLO 205 colon = tested on: COLO 205 colon
HOP-92 NSCLC = tested on: HOP-92 NSCLC
EKVX NSCLC = tested on: EKVX NSCLC
NCI-H226 lung = tested on: NCI-H226 lung
UO-31 renal = tested on: UO-31 renal
SNB-19 CNS = tested on: SNB-19 CNS
HCC-2998 colon = tested on: HCC-2998 colon
ACHN renal = tested on: ACHN renal
HL-60(TB) leukemia = tested on: HL-60(TB) leukemia
NCI-H460 NSCLC = tested on: NCI-H460 NSCLC
UACC-62 melanoma = tested on: UACC-62 melanoma

For `NS(=O)(=O)OC[C@@H]1C[C@@H](n2ccc3c(NC4CCc5ccccc54)ncnc32)C[C@@H]1O` (stereo not given in full), the GI50 (U251 glioblastoma) was 254 nM, the TGI (U251 glioblastoma) was 12500 nM and the GI50 (HS 578T breast) was 186 nM. The TGI (HS 578T breast) was 13200 nM, the GI50 (SW-620 colon) was 602 nM and the TGI (SW-620 colon) was 15700 nM. The GI50 ([…]-0 renal) was 226 nM, the TGI (786-0 renal) was 1130 nM and the GI50 (KM12 colon) was 255 nM. It also gave a TGI (KM12 colon) of 4950 nM, a GI50 (SF-539 CNS) of 85.3 nM and a TGI (SF-539 CNS) of 260 nM. For the same molecule, the GI50 (MALME-3M melanoma) was 202 nM, the TGI (MALME-3M melanoma) was 766 nM and the GI50 (SF-268 CNS) was 238 nM. For the same molecule, the TGI (SF-268 CNS) was 4970 nM, the GI50 (OVCAR-3 ovarian) was 43.2 nM and the TGI (OVCAR-3 ovarian) was 3550 nM. It also gave a GI50 (MDA-MB-231 breast) of 216 nM, a TGI (MDA-MB-231 breast) of 2730 nM and a GI50 (MOLT-4 leukemia) of 29 nM. The TGI (MOLT-4 leukemia) was 117 nM, the GI50 (RPMI-8226 leukemia) was 126 nM and the TGI (RPMI-8226 leukemia) was 1560 nM. It also gave a GI50 (NCI/ADR-RES ovarian) of 1520 nM, a TGI (NCI/ADR-RES ovarian) of 11300 nM and a GI50 (SR leukemia) of 24.3 nM. It also gave a TGI (SR leukemia) of 79.1 nM, a GI50 (BT-549 breast) of 56.7 nM and a TGI (BT-549 breast) of 491 nM. The GI50 (A498 renal) was 43.8 nM, the TGI (A498 renal) was 10400 nM and the GI50 (SNB-75 CNS) was 178 nM. It also gave a TGI (SNB-75 CNS) of 627 nM, a GI50 (SF-295 CNS) of 176 nM and a TGI (SF-295 CNS) of 333 nM. For the same molecule, the GI50 (SK-MEL-5 melanoma) was 34.3 nM, the TGI (SK-MEL-5 melanoma) was 223 nM and the GI50 (A549 NSCLC) was 405 nM. The TGI (A549 NSCLC) was 13800 nM, the GI50 (HOP-62 NSCLC) was 114 nM and the TGI (HOP-62 NSCLC) was 372 nM. For the same molecule, the GI50 (M14 melanoma) was 151 nM, the TGI (M14 melanoma) was 1050 nM and the GI50 (SK-MEL-28 melanoma) was 163 nM. For the same molecule, the TGI (SK-MEL-28 melanoma) was 1880 nM, the GI50 (OVCAR-5 ovarian) was 554 nM and the TGI (OVCAR-5 ovarian) was 13600 nM. It also gave a GI50 (SK-OV-3 ovarian) of 206 nM, a TGI (SK-OV-3 ovarian) of 703 nM and a GI50 (RXF 393 renal) of 60.1 nM. The TGI (RXF 393 renal) was 304 nM, the GI50 (T-47D breast) was 142 nM and the TGI (T-47D breast) was 15800 nM. It also gave a GI50 (NCI-H23 lung) of 212 nM, a TGI (NCI-H23 lung) of 1380 nM and a GI50 (UACC-257 melanoma) of 162 nM. It also gave a TGI (UACC-257 melanoma) of 10500 nM, a GI50 (K-562 leukemia) of 62.7 nM and a TGI (K-562 leukemia) of 10900 nM. It also gave a GI50 (CCRF-CEM leukemia) of 24.6 nM, a TGI (CCRF-CEM leukemia) of 126 nM and a GI50 (NCI-H522 lung) of 42.8 nM. The TGI (NCI-H522 lung) was 844 nM, the GI50 (IGROV1 ovarian) was 257 nM and the TGI (IGROV1 ovarian) was 4400 nM. For the same molecule, the GI50 (MDA-MB-468 breast) was 13.5 nM, the TGI (MDA-MB-468 breast) was 64.9 nM and the GI50 (NCI-H322M lung) was 333 nM. The TGI (NCI-H322M lung) was 11100 nM, the GI50 (SN12C renal) was 370 nM and the TGI (SN12C renal) was 4360 nM. It also gave a GI50 (OVCAR-4 ovarian) of 210 nM, a TGI (OVCAR-4 ovarian) of 799 nM and a GI50 (DU-145 prostate) of 68.6 nM. It also gave a TGI (DU-145 prostate) of 14000 nM, a GI50 (HT29 colon) of 256 nM and a TGI (HT29 colon) of 11600 nM. The GI50 (LOX IMVI melanoma) was 39.9 nM, the TGI (LOX IMVI melanoma) was 168 nM and the GI50 (OVCAR-8 ovarian) was 119 nM. For the same molecule, the TGI (OVCAR-8 ovarian) was 316 nM, the GI50 (MCF7 breast) was 32.9 nM and the TGI (MCF7 breast) was 424 nM. For the same molecule, the GI50 (HCT-15 colon) was 277 nM, the TGI (HCT-15 colon) was 11200 nM and the GI50 (CAKI-1 renal) was 76.4 nM. It also gave a TGI (CAKI-1 renal) of over 100000 nM, a GI50 (COLO 205 colon) of 40.6 nM and a TGI (COLO 205 colon) of 292 nM. It also gave a GI50 (HOP-92 NSCLC) of 439 nM, a TGI (HOP-92 NSCLC) of 18800 nM and a GI50 (EKVX NSCLC) of 2430 nM. For the same molecule, the TGI (EKVX NSCLC) was over 100000 nM, the GI50 (NCI-H226 lung) was 112 nM and the TGI (NCI-H226 lung) was 804 nM. For the same molecule, the GI50 (UO-31 renal) was 3180 nM, the TGI (UO-31 renal) was over 100000 nM and the GI50 (SNB-19 CNS) was 372 nM. The TGI (SNB-19 CNS) was 28500 nM, the GI50 (HCC-2998 colon) was 434 nM and the TGI (HCC-2998 colon) was 5530 nM. The GI50 (ACHN renal) was 227 nM, the TGI (ACHN renal) was 735 nM and the GI50 (HL-60(TB) leukemia) was 10.9 nM. The TGI (HL-60(TB) leukemia) was 26.6 nM, the GI50 (NCI-H460 NSCLC) was 274 nM and the TGI (NCI-H460 NSCLC) was 958 nM. It also gave a GI50 (UACC-62 melanoma) of 20.2 nM and a TGI (UACC-62 melanoma) of 137 nM.
